Values after ≈ are worked out from the molar mass of the structure shown.
Columns and labels:
Format in all cases: biochemical
[1] = system: LDL/VLDL; test: Bound LAG TIME: samples incubated 2 hours with LDL/VLDL before Cu2+-induced oxidation; settings: 1 μM of sample; for Lag Time: bound (2 hours incubation with LDL/VLDL at ambient temperature), 25 μM Cu2+; for Increase of Lag Time 1 (%) / Increase of Lag Time 2 (%): bound; for Increase of Lag Time 1 (%): relative to control (LDL alone); for Increase of Lag Time 2 (%): relative to the unbound sample
Protocol: The LDLs and the various antioxidants were inoculated so that bonds were created. This phenomenon is supposed to represent what happens in the plasma when an antioxidant having the ability to bind is absorbed.
The various samples and the LDL/VLDL preparation were diluted to 1 μM and 70 μg/ml respectively in PBS, then incubated at ambient temperature for 2 hours. Next, 25 μM of Cu^2+ (final concentration in the solution) were added and mixed and the absorbance measurement was carried out every 5 minutes for 6 to 8 hours. The absorbance of the samples was measured at a wavelength of 234 nm over 10 min on a Genesys 5 machine. The tocopherol was used as a positive control given that it is known for binding to the LDL which is generally a tocopherol carrier in plasma.

[2] = system: LDL/VLDL; test: LAG-TIME method: Cu2+-induced oxidation of LDL/VLDL, absorbance at 234 nm, unbound samples; settings: 1 μM of sample; for Lag Time: 70 μg/ml LDL/VLDL, 25 μM Cu2+, 234 nm; for Increase of Lag Time 1 (%): relative to control (LDL alone)
Protocol: It makes it possible to measure the time required for the added antioxidants to oxidize. […] The effect of the antioxidant present is all the stronger when the lag time is long (in seconds). The kinetic analysis was carried out at 234 nm. The various samples were brought to the same concentration of 1 μm.
The mixture was subjected to Vortex stirring for 5 minutes, then to centrifugation for 10 minutes. […] of supernatant was recovered. This product was ready to use. (sample No. 7 was ground into a fine powder before being mixed with water).
The procedure described in the publication J. Agric. […] This experiment thus made it possible to measure the capacity of the antioxidant tested to inhibit oxidation.
The LDL/VLDL preparation and the various samples were diluted in PBS in order to obtain the desired concentration (70 μg/ml of LDL/VLDL). The control batch contained only the 70 μg/ml LDL/VLDL preparation and PBS. The absorbance of the PBS, the control batch and the other samples was carried out at a wavelength of 234 nm over 10 min on a Genesys 5 machine. Next, 25 μM of Cu^2+ (final concentration in the solution) were added and mixed and the absorbance measurement was carried out every 5 minutes for 6 to 8 hours.

[3] = Reduction of the DPPH radical, inhibition of absorbance at 523 nm (UV-visible); settings: for IC50 Mean: n = 3
Description: DPPH. has an intense violet color and this compound remains stable, in the solid form, for years. An antioxidant, proton donor, is capable of reducing this radical (DPPH.→DPPH2), which leads to a decrease in its absorbance. The antioxidant capacity of the compounds is thus determined by evaluating the percentage of inhibition of the absorbance of DPPH. at 523 nm. […] The DPPH. sold by Aldrich and the vitamin C sold by Merck were used. In these tests, the selenium and glutathione concentrations were such that the solution of E2 contained as much selenium and glutathione as that of E1. The method used made it possible to evaluate the overall antioxidant power of the mixture and to compare it to that of reference substances under the same experimental conditions. The antioxidant activity was evaluated by measuring the capacity of the extract to trap the […].

IC50 Mean ([3]; Time 10 min) [µg/mL] | IC50 Mean ([3]; Time 20 min) [µg/mL] | IC50 Mean ([3]; Time 30 min) [µg/mL] | IC50 times higher than that for vitamin C ([3]; 30 min value) [times] | Compound | Lag Time [1] [s] | Increase of Lag Time 1 (%) [1] [%] | Increase of Lag Time 2 (%) [1] [%] | inhibition of LDL oxidation in comparison to the control (in words) [2] | Lag Time [2] [s] | Increase of Lag Time 1 (%) [2] [%]
 |  |  |  | C[Se]CC[C@H](N)C(=O)O [selenomethionine] | 6267 | 106 | 123 | did not show signs of inhibition | 2805 | −8
5.24 (≈ 29.8 µM) | 5.20 (≈ 29.5 µM) | 5.16 (≈ 29.3 µM) |  | O=C1O[C@H]([C@@H](O)CO)C(O)=C1O [Vitamin C, vitamin C] |  |  |  |  |  | 
292.97 (≈ 953 µM) | 233.84 (≈ 761 µM) | 202.13 (≈ 658 µM) | 40 | N[C@@H](CCC(=O)N[C@@H](CS)C(=O)NCC(=O)O)C(=O)O [Glutathione] |  |  |  |  |  | 
 |  |  |  | tocopherol | 20940 | 590 | 187 | high levels of inhibition | 7285 | 140

Source: US20090232942A1, “Yeast Preparations With Improved Antioxidant Properties and Uses Thereof” (priority 2005, published 2009)
